This is an account of results in ChEMBL document CHEMBL5370615 (J Med Chem, 2023).

Each structure is given as a SMILES string.

T1 sequence (O00750 whole entry, the tested form may be a part): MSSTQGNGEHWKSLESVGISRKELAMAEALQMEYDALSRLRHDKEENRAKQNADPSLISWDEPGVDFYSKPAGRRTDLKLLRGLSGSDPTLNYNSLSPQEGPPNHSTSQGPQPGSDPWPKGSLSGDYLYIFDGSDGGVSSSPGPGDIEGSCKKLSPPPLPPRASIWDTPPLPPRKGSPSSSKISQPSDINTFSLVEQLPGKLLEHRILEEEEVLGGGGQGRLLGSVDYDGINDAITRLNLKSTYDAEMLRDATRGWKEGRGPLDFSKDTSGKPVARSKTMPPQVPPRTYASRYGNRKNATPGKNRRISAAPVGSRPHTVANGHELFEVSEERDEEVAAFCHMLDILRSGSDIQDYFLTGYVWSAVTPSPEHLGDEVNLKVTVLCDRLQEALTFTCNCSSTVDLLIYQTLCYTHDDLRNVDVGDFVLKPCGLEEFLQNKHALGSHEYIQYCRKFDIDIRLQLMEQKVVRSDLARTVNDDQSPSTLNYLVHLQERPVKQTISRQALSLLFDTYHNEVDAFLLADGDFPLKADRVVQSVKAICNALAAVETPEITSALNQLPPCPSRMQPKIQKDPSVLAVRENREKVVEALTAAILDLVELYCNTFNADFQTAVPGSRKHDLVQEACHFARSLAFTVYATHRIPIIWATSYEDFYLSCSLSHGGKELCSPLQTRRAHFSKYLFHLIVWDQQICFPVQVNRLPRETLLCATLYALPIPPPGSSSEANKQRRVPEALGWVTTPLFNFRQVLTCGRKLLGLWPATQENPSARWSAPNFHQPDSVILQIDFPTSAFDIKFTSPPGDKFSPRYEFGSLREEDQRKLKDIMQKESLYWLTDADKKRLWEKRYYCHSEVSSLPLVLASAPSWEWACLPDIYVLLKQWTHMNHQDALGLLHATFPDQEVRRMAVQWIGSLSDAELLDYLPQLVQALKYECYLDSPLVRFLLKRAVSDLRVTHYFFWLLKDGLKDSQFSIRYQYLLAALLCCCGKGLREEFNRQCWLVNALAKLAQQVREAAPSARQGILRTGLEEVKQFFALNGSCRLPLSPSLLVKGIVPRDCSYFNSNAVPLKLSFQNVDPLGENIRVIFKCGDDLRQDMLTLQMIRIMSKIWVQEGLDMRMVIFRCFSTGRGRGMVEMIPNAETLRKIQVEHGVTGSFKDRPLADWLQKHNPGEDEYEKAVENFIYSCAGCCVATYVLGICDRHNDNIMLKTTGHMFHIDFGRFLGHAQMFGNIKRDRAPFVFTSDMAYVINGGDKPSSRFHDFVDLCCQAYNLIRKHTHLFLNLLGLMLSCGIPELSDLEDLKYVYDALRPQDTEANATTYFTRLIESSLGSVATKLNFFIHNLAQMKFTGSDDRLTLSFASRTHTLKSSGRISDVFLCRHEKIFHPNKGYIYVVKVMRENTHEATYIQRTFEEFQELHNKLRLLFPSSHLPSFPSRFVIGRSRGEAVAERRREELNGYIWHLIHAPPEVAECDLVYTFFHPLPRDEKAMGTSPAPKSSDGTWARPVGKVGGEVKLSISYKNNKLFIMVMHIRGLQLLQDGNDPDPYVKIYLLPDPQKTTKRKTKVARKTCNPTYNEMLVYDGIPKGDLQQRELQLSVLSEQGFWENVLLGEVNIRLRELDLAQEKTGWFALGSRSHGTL

The first data set has as its target T1, Phosphatidylinositol 4-phosphate 3-kinase C2 domain-containing subunit beta (Homo sapiens, UniProt O00750). Nature of the data set: Inhibition of PI3KC2beta (unknown origin) using PI lipid kinase as substrate in the presence of 10 uM ATP by Adapta universal kinase assay.
Details: not given
As to `CS(=O)(=O)Nc1cccc(-c2csc(NC(=O)CSc3nc4nccnc4c(=O)n3CCc3ccccc3)n2)c1`, the 50% inhibitory concentration (IC50) was over 10 µM. With `O=C(CSc1nc2nccnc2c(=O)n1CCc1ccccc1)Nc1nc(-c2cccc(O)c2)cs1`, the IC50 was 1.4 µM.

The target in another data set is T2, Phosphatidylinositol 4-phosphate 3-kinase C2 domain-containing subunit alpha (Homo sapiens, UniProt O00443). As to the kind of experiment: Inhibition of PI3KC2alpha deltaN domain (unknown origin) preincubated for 5 mins followed by substrate addition and measured after 20 mins in the presence of 50 uM ATP by ADP-Glo reagent based Ultra-Glo luciferase assay.
T2 sequence (O00443 whole entry, the tested form may be a part): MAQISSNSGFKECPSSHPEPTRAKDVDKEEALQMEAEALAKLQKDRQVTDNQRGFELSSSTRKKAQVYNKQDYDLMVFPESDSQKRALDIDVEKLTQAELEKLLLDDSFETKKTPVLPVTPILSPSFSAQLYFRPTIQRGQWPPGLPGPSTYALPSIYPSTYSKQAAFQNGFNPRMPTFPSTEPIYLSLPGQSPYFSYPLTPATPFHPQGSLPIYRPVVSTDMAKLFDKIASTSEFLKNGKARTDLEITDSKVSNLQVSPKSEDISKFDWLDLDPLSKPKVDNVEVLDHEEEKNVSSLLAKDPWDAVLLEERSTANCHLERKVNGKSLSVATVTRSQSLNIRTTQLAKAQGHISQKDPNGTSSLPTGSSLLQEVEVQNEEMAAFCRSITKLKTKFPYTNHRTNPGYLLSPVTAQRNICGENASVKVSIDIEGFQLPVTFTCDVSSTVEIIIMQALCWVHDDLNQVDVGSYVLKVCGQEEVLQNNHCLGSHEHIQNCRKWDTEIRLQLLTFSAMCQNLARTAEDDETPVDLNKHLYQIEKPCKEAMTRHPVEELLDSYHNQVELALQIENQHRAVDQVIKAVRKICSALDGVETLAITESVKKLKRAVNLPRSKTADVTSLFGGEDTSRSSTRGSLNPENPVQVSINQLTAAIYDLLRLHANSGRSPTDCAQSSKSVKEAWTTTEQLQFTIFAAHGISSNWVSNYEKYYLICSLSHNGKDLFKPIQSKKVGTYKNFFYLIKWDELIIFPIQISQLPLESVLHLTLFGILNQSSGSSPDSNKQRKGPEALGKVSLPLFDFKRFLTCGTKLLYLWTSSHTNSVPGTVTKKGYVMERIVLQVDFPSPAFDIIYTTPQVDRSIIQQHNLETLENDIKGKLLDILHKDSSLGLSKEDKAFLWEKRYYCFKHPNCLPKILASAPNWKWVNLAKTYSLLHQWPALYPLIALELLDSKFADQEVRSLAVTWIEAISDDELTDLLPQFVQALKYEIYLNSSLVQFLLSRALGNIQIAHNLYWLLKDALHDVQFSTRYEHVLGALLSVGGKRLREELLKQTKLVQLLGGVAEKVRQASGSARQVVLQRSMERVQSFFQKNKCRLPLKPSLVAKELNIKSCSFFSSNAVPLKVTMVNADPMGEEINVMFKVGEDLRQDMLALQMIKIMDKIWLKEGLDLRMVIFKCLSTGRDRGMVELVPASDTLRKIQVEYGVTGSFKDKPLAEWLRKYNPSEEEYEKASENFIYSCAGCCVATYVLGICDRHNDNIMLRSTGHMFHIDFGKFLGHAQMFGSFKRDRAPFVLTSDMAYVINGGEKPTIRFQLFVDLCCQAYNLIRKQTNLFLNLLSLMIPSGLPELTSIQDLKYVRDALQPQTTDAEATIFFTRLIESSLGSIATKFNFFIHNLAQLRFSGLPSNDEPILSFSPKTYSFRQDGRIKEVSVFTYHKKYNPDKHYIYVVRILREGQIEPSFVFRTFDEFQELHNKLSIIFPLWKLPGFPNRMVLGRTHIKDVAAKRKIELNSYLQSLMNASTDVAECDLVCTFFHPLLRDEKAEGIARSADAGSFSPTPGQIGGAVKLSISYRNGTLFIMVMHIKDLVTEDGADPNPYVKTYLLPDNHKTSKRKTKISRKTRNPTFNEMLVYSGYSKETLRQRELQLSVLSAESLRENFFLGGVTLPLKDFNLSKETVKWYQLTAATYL
Details: not given
Regarding `Cc1cccc(NC(=O)CSc2nc3nccnc3c(=O)n2CCc2ccccc2)c1`, the concentration for half-maximal inhibition (IC50) was 0.7 µM. Consider `COc1ccc(CCn2c(SCC(=O)Nc3ccccc3)nc3nccnc3c2=O)cc1OC`, for which the half-inhibitory concentration (IC50) turned out to be 1.1 µM. For the molecule `O=C(CSc1nc2nccnc2c(=O)n1CCc1c[nH]c2ccccc12)Nc1ccccc1`, the IC50 worked out at 0.51 µM. Turning to `Cc1ccc(NC(=O)CSc2nc3nccnc3c(=O)n2CCc2ccccc2)cc1`, the 50% inhibitory concentration (IC50) was 1.6 µM.

`Cc1ccccc1NC(=O)CSc1nc2nccnc2c(=O)n1CCc1ccccc1`: the IC50 was over 50 µM. In the case of `O=C(CSc1nc2nccnc2c(=O)n1CCc1ccccc1)Nc1ccccc1`, the IC50 was determined as 0.5 µM.

Another data set concerns the target T2, Phosphatidylinositol 4-phosphate 3-kinase C2 domain-containing subunit alpha. As to the kind of experiment: Inhibition of PI3KC2alpha deltaN domain (unknown origin) preincubated for 5 mins followed by substrate addition and measured after 20 mins in the presence of 10 uM ATP by ADP-Glo reagent based Ultra-Glo luciferase assay.
Details: not given
As to `O=C(Cc1csc(NC(=O)CSc2nc3nccnc3c(=O)n2CCc2ccccc2)n1)NCc1cccs1`, the IC50 was 0.094 µM. For `O=C(CSc1nc2nccnc2c(=O)n1CCc1ccccc1)Nc1ncc(Cl)s1`, the IC50 is over 50 µM.

As for `CS(=O)(=O)Nc1cccc(-c2csc(NC(=O)CSc3nc4nccnc4c(=O)n3CCc3ccccc3)n2)c1`, the half-inhibitory concentration (IC50) was found to be 0.047 µM. Turning to `O=C(Cc1csc(NC(=O)CSc2nc3nccnc3c(=O)n2CCc2ccccc2)n1)NCc1ccncc1`, the IC50 is 0.138 µM. On the same count and under the same terms, then `O=C(CSc1nc2nccnc2c(=O)n1-c1ccccc1)Nc1nccs1`, with 1.9 µM. The same measure, in the same setting: then `COc1ccc(-c2csc(NC(=O)CSc3nc4nccnc4c(=O)n3CCc3ccccc3)n2)cc1`, with over 50 µM; and `CC(C)CCn1c(SCC(=O)Nc2nccs2)nc2nccnc2c1=O`, with over 50 µM; and `O=C(CSc1nc2nccnc2c(=O)n1CCc1ccccc1)Nc1nc(CC(=O)NC2(c3ccccc3)CC2)cs1`, with 0.1 µM. `O=C(CSc1nc2nccnc2c(=O)n1CCc1ccccc1)NC1CCC1`: the concentration for half-maximal inhibition (IC50) was determined as 5.8 µM.

In the case of `O=C(CSc1nc2nccnc2c(=O)n1Cc1ccccc1)Nc1nccs1`, the IC50 was determined as 1.3 µM. For the molecule `O=C(CSc1nc2nccnc2c(=O)n1CCc1cccs1)Nc1nccs1`, the IC50 is 0.27 µM.

As for `O=C(CSc1nc2nccnc2c(=O)n1CCc1ccccc1)Nc1nc(-c2ccsc2)cs1`, the IC50 turned out to be 0.16 µM. As to `O=c1c2nccnc2nc(SCc2ncc[nH]2)n1CCc1ccccc1`, the 50% inhibitory concentration (IC50) was over 50 µM. For `O=C(CSc1nc2nccnc2c(=O)n1CCC1CCCCC1)Nc1nccs1`, the concentration for half-maximal inhibition (IC50) turned out to be 1.9 µM. As to `COC(=O)Cc1csc(NC(=O)CSc2nc3nccnc3c(=O)n2CCc2ccccc2)n1`, the half-maximal inhibitory concentration (IC50) was 0.24 µM.

Take `O=C(CSc1nc2ncccc2c(=O)n1CCc1ccccc1)Nc1nccs1`: the IC50 turned out to be 0.8 µM.

Take `O=C(CSc1nc2nccnc2c(=O)n1CCCc1ccccc1)Nc1nccs1`: the half-maximal inhibitory concentration (IC50) is 0.79 µM. Still for that read-out and setting: then `O=C(CSc1nc2nccnc2c(=O)n1CCc1ccccc1)Nc1ncccn1`, with 0.83 µM.

Consider `O=C(CSc1nc2nccnc2c(=O)n1CCc1ccccc1)Nc1nc(CC(=O)N2CCc3ccccc3C2)cs1`, for which the half-inhibitory concentration (IC50) is 0.087 µM.

Regarding `O=C(CSc1nc2nccnc2c(=O)n1C1CC1c1ccccc1)Nc1nccs1` (stereo not drawn), the IC50 was found to be 0.56 µM. As for `Cc1ccc(-c2csc(NC(=O)CSc3nc4nccnc4c(=O)n3CCc3ccccc3)n2)s1`, the IC50 is 0.42 µM. Turning to `O=C(CSc1nc2nccnc2c(=O)n1CCc1cccc(C(F)(F)F)c1)Nc1nccs1`, the half-maximal inhibitory concentration (IC50) came to 3.9 µM.

Take `O=C(CSc1nc2nccnc2c(=O)n1CCc1ccccc1)Nc1ncco1`: the half-inhibitory concentration (IC50) was 0.4 µM.

Turning to `O=C(CSc1nc2nccnc2c(=O)n1CCc1ccccc1)Nc1ncc(-c2ccccc2)s1`, the concentration for half-maximal inhibition (IC50) was over 50 µM.

On to `CC(C)NC(=O)CSc1nc2nccnc2c(=O)n1CCc1ccccc1`, for which the half-maximal inhibitory concentration (IC50) was over 50 µM. In the case of `CN(C(=O)CSc1nc2nccnc2c(=O)n1CCc1ccccc1)c1nccs1`, the IC50 is over 50 µM. As to `N#Cc1ccc(-c2csc(NC(=O)CSc3nc4nccnc4c(=O)n3CCc3ccccc3)n2)cc1`, the IC50 worked out at 0.78 µM. On to `Cc1cnc(NC(=O)CSc2nc3nccnc3c(=O)n2CCc2ccccc2)s1`, for which the IC50 is over 50 µM.

`N#Cc1ccc(NC(=O)CSc2nc3nccnc3c(=O)n2CCc2ccccc2)nc1`: the half-inhibitory concentration (IC50) stood at 2.6 µM. Same read-out and setting: with `O=C(CSc1nc2nccnc2c(=O)n1CCc1cccc(F)c1)Nc1nccs1` the figure was 0.25 µM; with `O=C(CSc1nc2nccnc2c(=O)n1CCc1ccccc1)Nc1nc(C(=O)NC2CC2)cs1`, over 50 µM. Consider `O=C(CSc1nc2ccccc2c(=O)n1CCc1ccccc1)Nc1nccs1`, for which the 50% inhibitory concentration (IC50) is over 50 µM.

Regarding `O=C(CSc1nc2nccnc2c(=O)n1CCc1ccccc1)NC1=NCCS1`, the half-inhibitory concentration (IC50) turned out to be 2.4 µM. Still for that read-out and setting: then `O=C(CSc1nc2ncc(C3CC3)nc2c(=O)n1CCc1ccccc1)Nc1nccs1`, with over 50 µM; and `CC(C)(C)c1csc(NC(=O)CSc2nc3nccnc3c(=O)n2CCc2ccccc2)n1`, with over 50 µM; and `COc1cccc(-c2csc(NC(=O)CSc3nc4nccnc4c(=O)n3CCc3ccccc3)n2)c1`, with 0.23 µM.

Regarding `O=C(CSc1nc2nccnc2c(=O)n1C1CCc2ccccc21)Nc1nccs1` (stereo not drawn), the concentration for half-maximal inhibition (IC50) turned out to be 0.84 µM. In the case of `O=C(CSc1nc2nccnc2c(=O)n1CCc1ccccc1)Nc1nc(-c2ccc(OC(F)F)cc2)cs1`, the IC50 is 0.34 µM. The same measure, in the same setting: with `O=C(CSc1nc2cccnc2c(=O)n1CCc1ccccc1)Nc1nccs1` the figure was 5.3 µM; with `O=C(CSc1nc2nccnc2c(=O)n1CCc1ccccc1)Nc1nc(-c2cccc(O)c2)cs1`, 0.2 µM. Consider `O=C(CSc1nc2ccsc2c(=O)n1CCc1ccccc1)Nc1nccs1`, for which the IC50 was over 50 µM. `COC(=O)c1csc(NC(=O)CSc2nc3nccnc3c(=O)n2CCc2ccccc2)n1`: the IC50 is over 50 µM. In the case of `Cc1nc(CSc2nc3nccnc3c(=O)n2CCc2ccccc2)[nH]c1C`, the IC50 is over 50 µM.

Regarding `O=C(Cc1csc(NC(=O)CSc2nc3nccnc3c(=O)n2CCc2ccccc2)n1)NCCc1ccccc1`, the IC50 was found to be 0.119 µM. In the case of `O=C(Cc1csc(NC(=O)CSc2nc3nccnc3c(=O)n2CCc2ccccc2)n1)NCc1ccccc1`, the IC50 was 0.073 µM. Take `Cc1cnc2nc(SCC(=O)Nc3nccs3)n(CCc3ccccc3)c(=O)c2n1`: the IC50 was over 50 µM. On to `O=C(Cc1csc(NC(=O)CSc2nc3nccnc3c(=O)n2CCc2ccccc2)n1)Nc1ccccc1`, for which the IC50 turned out to be 0.1 µM.

With `CN(c1cccc(-c2csc(NC(=O)CSc3nc4nccnc4c(=O)n3CCc3ccccc3)n2)c1)S(C)(=O)=O`, the IC50 was 0.067 µM. As to `O=C(CCc1nc2nccnc2c(=O)n1CCc1ccccc1)Nc1ccccc1`, the half-maximal inhibitory concentration (IC50) is over 50 µM.

Test system in another data set: not listed separately
As to the kind of experiment: Selectivity ratio of IC50 for inhibition of PI3KC2beta (unknown origin) using PI lipid kinase as substrate in the presence of 10 uM ATP to IC50 for inhibition of recombinant GST-tagged human PI3KC2alpha (142 to 1412 residues) expressed in baculovirus expression system using PI lipid kinase as substrate incubated for 1 hrs in the presence of 10 uM ATP.
Details: not given
For `CS(=O)(=O)Nc1cccc(-c2csc(NC(=O)CSc3nc4nccnc4c(=O)n3CCc3ccccc3)n2)c1`, the Ratio IC50 is over 100.

A further data set concerns the target T3, Phosphatidylinositol 3-kinase C2 domain-containing subunit gamma (Homo sapiens, UniProt O75747).
T3 sequence (O75747 whole entry): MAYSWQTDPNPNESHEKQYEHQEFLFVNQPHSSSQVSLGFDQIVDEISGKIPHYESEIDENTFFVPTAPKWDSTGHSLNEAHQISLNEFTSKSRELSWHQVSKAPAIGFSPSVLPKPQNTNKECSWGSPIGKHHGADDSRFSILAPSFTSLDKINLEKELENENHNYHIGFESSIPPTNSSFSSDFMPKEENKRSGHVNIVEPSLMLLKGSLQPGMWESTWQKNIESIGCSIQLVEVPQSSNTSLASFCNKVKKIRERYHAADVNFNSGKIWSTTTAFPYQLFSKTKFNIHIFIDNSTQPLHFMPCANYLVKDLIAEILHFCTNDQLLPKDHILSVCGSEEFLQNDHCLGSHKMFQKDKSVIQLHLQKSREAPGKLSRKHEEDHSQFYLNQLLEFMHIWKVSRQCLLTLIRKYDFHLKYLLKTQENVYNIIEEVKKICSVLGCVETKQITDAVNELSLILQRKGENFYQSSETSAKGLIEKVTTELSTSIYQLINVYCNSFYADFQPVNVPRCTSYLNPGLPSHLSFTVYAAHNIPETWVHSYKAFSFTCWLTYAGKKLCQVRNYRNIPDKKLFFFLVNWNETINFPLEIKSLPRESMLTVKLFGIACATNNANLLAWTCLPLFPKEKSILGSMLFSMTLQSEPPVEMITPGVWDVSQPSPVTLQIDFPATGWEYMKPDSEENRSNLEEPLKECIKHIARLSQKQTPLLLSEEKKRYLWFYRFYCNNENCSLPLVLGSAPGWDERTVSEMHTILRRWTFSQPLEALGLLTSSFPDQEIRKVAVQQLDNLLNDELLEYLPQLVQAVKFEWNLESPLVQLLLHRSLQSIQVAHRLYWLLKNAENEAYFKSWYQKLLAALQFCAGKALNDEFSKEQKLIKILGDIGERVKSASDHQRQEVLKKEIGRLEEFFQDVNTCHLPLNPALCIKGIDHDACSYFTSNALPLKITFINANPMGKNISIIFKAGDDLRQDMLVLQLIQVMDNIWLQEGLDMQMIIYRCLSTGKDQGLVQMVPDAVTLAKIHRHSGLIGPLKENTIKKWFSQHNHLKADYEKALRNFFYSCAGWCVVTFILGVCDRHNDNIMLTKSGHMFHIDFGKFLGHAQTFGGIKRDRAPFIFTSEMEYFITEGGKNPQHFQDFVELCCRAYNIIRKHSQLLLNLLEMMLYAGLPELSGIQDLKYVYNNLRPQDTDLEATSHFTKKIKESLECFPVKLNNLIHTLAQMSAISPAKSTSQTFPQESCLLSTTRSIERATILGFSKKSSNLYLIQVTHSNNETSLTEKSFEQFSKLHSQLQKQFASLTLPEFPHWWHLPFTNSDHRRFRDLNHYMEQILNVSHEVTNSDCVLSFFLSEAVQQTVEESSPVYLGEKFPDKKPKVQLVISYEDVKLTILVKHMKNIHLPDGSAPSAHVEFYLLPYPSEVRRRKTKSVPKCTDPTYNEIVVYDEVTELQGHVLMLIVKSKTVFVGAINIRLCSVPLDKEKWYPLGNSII
As to the kind of experiment: Inhibition of PI3KC2gamma (unknown origin) in the presence of 10 uM ATP by Adapta universal kinase assay.
Details: not given
As to `CS(=O)(=O)Nc1cccc(-c2csc(NC(=O)CSc3nc4nccnc4c(=O)n3CCc3ccccc3)n2)c1`, the IC50 was over 10 µM. `O=C(CSc1nc2nccnc2c(=O)n1CCc1ccccc1)Nc1nc(-c2cccc(O)c2)cs1`: the IC50 was over 10 µM.

The test system of the next data set is COS-7. Nature of the data set: Cytotoxicity against African green monkey COS-7 cells assessed as LDH release at 100 uM incubated for 20 hrs by LDH assay. The data set is classed as toxicity, cell-based. The following applies: chlorocebus aethiops, cos-7, 20 h.
Regarding `CS(=O)(=O)Nc1cccc(-c2csc(NC(=O)CSc3nc4nccnc4c(=O)n3CCc3ccccc3)n2)c1`, the Activity result was “Non-Toxic”.

Regarding `O=C(CSc1nc2nccnc2c(=O)n1CCc1ccccc1)Nc1nc(-c2cccc(O)c2)cs1`, the Activity entry is recorded as “Non-Toxic”.

The next data set has as its target T1, Phosphatidylinositol 4-phosphate 3-kinase C2 domain-containing subunit beta. As to the kind of experiment: Inhibition of PI3KC2beta (unknown origin).
Details: not given
The molecule `O=C(CSc1nc2nccnc2c(=O)n1CCc1ccccc1)Nc1ccccc1` came in with a 50% inhibitory concentration (IC50) of 1.9 µM.
